What was measured:
[1] = test system: BLM pulmonary fibrosis model mice; experiment: Survival rate in BLM pulmonary fibrosis model mice; type: in vivo; details: day 6 to 28 after BLM
Method: C57BL/6NCr female mice (7 weeks old) were anesthetized with sodium pentobarbital, and then intratracheally (intrapulmonary) administered with 20 μL of a bleomycin hydrochloride aqueous solution (BLM) twice (40 μL in total per animal). In a normal group (Normal), vehicle (physiological saline) was similarly intratracheally administered.
From 6 days to 28 days after the BLM administration, the test substance was administered to compare the survival rates. As the test substances, compound (A) (ONO-1301) was repeatedly orally administration twice daily, compound (A) (ONO-1301) was intravenously administered once weekly, and compound (A) (ONO-1301) was intratracheally administered once weekly. Further, Formulation 25 (ONO-1301Lipo) was intravenously administered once weekly, and Formulation 25 (ONO-1301Lipo) was intratracheally administered once weekly to analyze the DDS effect of Formulation 25 (ONO-1301Lipo) by comparing the survival rates.
From 6 days after the preparation of the lung injury model, the vehicle and compound (A) (3 mg/kg) were repeatedly orally administered twice daily for 23 days (the administration interval between morning and afternoon was 8 hours or more).
(§1) The administration was performed 6 days after the preparation of the lung injury model; after that, tail vein intravenous administration was performed once weekly (4 times in total, i.e., 6, 13, 20, and 27 or 28 days after the preparation of the model).
as §1, with “intratracheal” for “tail vein intravenous”, “model). In normal Group 9 (Normal), physiological saline was administered in a similar manner.” for “model).”

[2] = Body weight and heart and lung weights in J2N-k hamsters; type: in vivo, hamster; details: for Body weight (g) at dissection: week 8
Method: Dissection was performed as follows. After all of the blood was collected from the abdominal aorta, and the hamsters were euthanized under isoflurane anesthesia, the heart and lungs were removed and weighed. After the weights thereof were measured, the removed parts, including the left and right ventricles, were divided into three parts; i.e., apical, middle, and basal parts, at intervals of about 2 mm along the short axis.
Tables 26 and 27 show the body weight change at the time of grouping and at the time of dissection, and the weights of heart and lung at the time of dissection.

[3] = test system: rat model of ischemia by complete coronary artery ligation; experiment: Echocardiography (EF %, % FS) in rat model of ischemia by complete coronary artery ligation; type: in vivo
Method: An improvement in the cardiac function against ischemic heart disease and an effect of preventing death from heart failure by intermittent intravenous administration of Formulation 25 (ONO-1301Lipo) or compound (A) (ONO-1301) were analyzed by using the left ventricular ejection fraction (hereinafter referred to as “EF %”), left ventricular fractional shortening (hereinafter referred to as “% FS”), and histological evaluation, based on echocardiography, as indices.
Male Sprague-Dawley rats (CLEA Japan, Inc., 6 weeks old when arrived) were anesthetized with a liquid mixture of 0.5 mg/kg of midazolam (Dormicum Injection 10 mg, Astellas Pharma Inc.) and 2 mg/kg of xylazine (Celactal 2% injection, Bayer Japan Ltd.). Thereafter, the animal tail veins were secured, and Propofol (1% Diprivan Injection; AstraZeneca K.K.) was continuously infused at 6 to 10 mg/kg/hr with a syringe pump (Terufusion TE-3310N; Terumo Corporation) to maintain deep anesthesia. Thereafter, a tracheal cannula (a cut-down catheter with an outside diameter of 2.0 mm, produced by JMS Co., Ltd.) was inserted and indwelled, and a respirator (for small animals; Shinano Seisakusho) was connected to maintain breathing at a stroke volume of 1 mL/100 g/stroke (±1 mL) and a stroke rate of 70 times/min (±10 times). Thereafter, the animals were fixed in a recumbent position from a dorsal fixed position so that the left chest faced upward, and the epidermis and muscle layer between the third to fourth or fourth to fifth ribs were incised with a surgical knife. After confirming that the knife reached the thoracic cavity, the intercostal space was widened with a rib spreader, and a state in which the anterior descending branch (hereinafter referred to as “LAD”) from the left atrial appendage was directly visible at the front was secured.
Thereafter, the translucent thin pericardium was removed with tweezers to expose the myocardium. Thereafter, the LAD located at the margin of the left atrial appendage was pierced and secured with a nylon thread with a 6-0 or 7-0 needle at a depth of 2 to 3 mm using a microneedle holder, and the LAD was completely ligated. Thereafter, the muscle layer and epidermis were sutured and closed with a 4-0 or 5-0 nylon thread. After the chest was closed, 50 mg of cefamedin was subcutaneously administered to the treatment site, and the treatment was terminated.
Echocardiography was performed to confirm the cardiac function improving effect of the test substances using the left ventricular ejection fraction (hereinafter referred to as “EF %”) as an index.
The test was performed 23 hours after the preparation of the model (test for grouping), the animals whose EF % value decreased by 25% or more of that of normal animals were selected, grouping was performed, and a solution for administration of the test substances was administered by tail vein intravenous administration 24 hours after the preparation of the model. Thereafter, echocardiography was performed 7 and 14 days after the test substance administration.

[4] = test system: rat model of ischemia by complete coronary artery ligation; experiment: Infarct area evaluation in rat myocardial ischemia model; type: in vivo; details: 3.0 mg/kg single i.v., day 14
Method: Dissection was performed after the completion of the echocardiography at day 14 after the administration of the test substance. For dissection, all of the blood was collected from the abdominal aorta, and the rats were euthanized under isoflurane anesthesia; thereafter, the heart was removed and weighed. After measuring the heart weight, the infarct area, including the left and right ventricles, was divided into three parts along the short axis.
(§2) For the sections, the apical portion was removed, and the middle area was sectioned into two parts at an interval of about 2 mm. Thereafter, the infarct area of the two sections on the apical and basal sides was measured. The infarct area was evaluated based on the ratio of the infarct area to the entire left ventricular area, and the ratio of the length of the normal area or the infarct area to the left ventricular outer diameter.
[…]

[5] = 3.0 mg/kg single i.v. 24 hours after infarction, day 7
[6] = 3.0 mg/kg single i.v. 24 hours after infarction, day 14
[7] = group 3.0 mg/kg single i.v., 23 hours after LAD ligation, before administration

Structure (SMILES): O=C(O)COc1cccc2c1CCC=C2CCO/N=C(\c1ccccc1)c1cccnc1 [Compound (A), ({5-[2-({[(1E)-phenyl(pyridin-3-yl)methylene]amino}oxy)ethyl]-7,8-dihydronaphthalen-1-yl}oxy)acetic acid]
- survival rate ([1]; intratracheal 1 mg/kg once/week): 20%
- survival rate ([1]; intravenous 3 mg/kg once/week): 40%
- survival rate ([1]; oral 3 mg/kg twice/day): 60%
- Body weight (g) at dissection ([2]; 3.0 mg/kg i.v. once/2 weeks): 144.4 ± 13.3 g
- Body weight (g) at dissection ([2]; 3.0 mg/kg p.o. twice/day): 128.6 ± 3.0 g
- Body weight (g) Before drug administration ([2]; group 3.0 mg/kg i.v. once/2 weeks): 128.7 ± 10.4 g
- Body weight (g) Before drug administration ([2]; group 3.0 mg/kg p.o. twice/day): 118.8 ± 9.6 g
- % FS 1 W [3, 5]: 25.4 ± 5.6%
- EF % 1 W [3, 5]: 54.6 ± 8.8%
- % FS 2 W [3, 6]: 24.5 ± 4.4%
- EF % 2 W [3, 6]: 53.2 ± 7.1%
- % FS Pre [3, 7]: 26.5 ± 3.7 %
- EF % Pre [3, 7]: 56.7 ± 5.5 %
- Left ventricular area (mm^2) Infarct region ([4]; first of two sections): 18.1 ± 5.18 mm^2
- Left ventricular area (mm^2) Normal region ([4]; first of two sections): 31.1 ± 2.83 mm^2
- Left ventricular area Infarct rate (%) ([4]; first of two sections): 36 ± 8.0%
- Left ventricular outer diameter (cm) Infarct region ([4]; first of two sections): 1.5 ± 0.15 cm
- Left ventricular outer diameter (cm) Normal region ([4]; first of two sections): 1.7 ± 0.41 cm
- Left ventricular outer diameter Infarct rate (%) ([4]; first of two sections): 46 ± 7.5%
- Left ventricular area (mm^2) Infarct region ([4]; second of two sections): 14.6 ± 3.23 mm^2
- Left ventricular area (mm^2) Normal region ([4]; second of two sections): 41.0 ± 8.03 mm^2
- Left ventricular area Infarct rate (%) ([4]; second of two sections): 26 ± 2.2%
- Left ventricular outer diameter (cm) Infarct region ([4]; second of two sections): 1.2 ± 0.37 cm
- Left ventricular outer diameter (cm) Normal region ([4]; second of two sections): 2.3 ± 0.41 cm
- Left ventricular outer diameter Infarct rate (%) ([4]; second of two sections): 34 ± 10.2%

Reference: US12569437B2, “Disease-site-specific liposomal formulation” (Osaka University, priority 2017, dated 2026)
